A short description of data set [1]: Metabolic stability assay in liver microsomes. Format: in vitro ADME. The settings on record: pH 7.4, human liver microsome 0.5 mg/mL, 1 mM NADPH, compound 1 µM, 37 °C; for microsomal CLint at 1 µM: read-out: In vitro Clint; for half-life at 1 µM: read-out: In vitro T1/2. On the procedure: The metabolic stability of compounds disclosed herein in liver microsomes was determined using the following method.
• 1. Liver microsome source: Human liver microsome (Corning, 452117) • 2. Na2HPO4 (Tianjin Guangfu Fine Chemical Research Institute, 20180130) • 3. KH2PO4 (Tianjin Guangfu Fine Chemical Research Institute, 20180920) • 4. MgCl2 (Tianjin Guangfu Fine Chemical Research Institute, 20191216) • 5. NADPH (Solarbio, 1216C022) • 6. Positive control compound verapamil (Sigma, MKBV4993V) • 7. AB Sciex Triple Quad 4000 liquid chromatography-mass spectrometry system
1. Preparation of 100 mM phosphate-buffered saline (PBS): 7.098 g Na2HPO4 was dissolved in 500 mL of purified water by sonication to give solution A. 3.400 g of KH2PO4 was dissolved in 250 mL of purified water by sonication to give solution B. Solution A was placed on a stirrer, and solution B was added slowly until the pH reached 7.4, so as to give a 100 mM PBS buffer. 2. Preparation of reaction system The reaction system was prepared according to the table below.
3. The reaction system was pre-incubated in a 37 °C water bath for 10 min. 40 µL of 10 mM NADPH solution (NADPH was dissolved in 100 mM phosphate-buffered saline) was added to the reaction system, with the final concentration of NADPH being 1 mM. A negative control was prepared by replacing the NADPH solution with 40 µL of phosphate-buffered saline. The negative control was used to exclude the effect of the chemical stability of the compound itself. 4. The reaction was initiated by adding 4 µL of 100 µM compound disclosed herein or positive control compound verapamil to the reaction system at a final concentration of 1 µM. 5. After 0.5 min, 15 min, 30 min, 45 min, and 60 min of mixing well by using a vortex oscillator, 50 µ L of the incubated sample was taken out, and glacial acetonitrile containing an internal standard of 4 folds was added to terminate the reaction. The sample was centrifuged at 3,220 g for 45 min. 90 µL of the supernatant was transferred to a feeding plate after the centrifugation was completed, and 90 µL ultrapure water was added. The mixture was well mixed for LC-MS/MS analysis.
All data were calculated by using Microsoft Excel software. The peak areas were determined by using an extracted ion chromatogram. The in vitro half-life (T1/2) of the test compound was determined by linear fitting of the natural logarithm of the elimination proportion of the test compound over time. In vitro half-life (T1/2) was calculated by the slope k: in vitro T1/2 = 0.693/k [formula]
The in vitro intrinsic clearance (in vitro CLint, unit: µL/min/mg protein) was calculated using the following formula: in vitro CLint = k × volume of incubation solution/enzyme protein content; [formula]
On the technique in general: Microsomes from liver hold many membrane-bound enzymes, among them those of drug oxidation.

The next data set is described as follows: in vitro. The settings on record: human, blood.
The subject of a further data set is AR. Put plainly: AR antagonistic activity: AR / PSA ARE1 luciferase reporter gene assay in transfected LNCaP cells stimulated with 1 nM DHT. Format: cell-based. The settings on record: treatment concentration: 3.3 µM, 24 h, normalised to 0.1% DMSO and 30 µM enzalutamide. The protocol:
LNCaP cells were plated in a 6-well plate (Corning, 3516) at 8 × 10^5 cells/well.
AR and PSA ARE1 reporter gene plasmids (Bio (Anhui) Co., Ltd.) and transfection reagents Lipo3000 and P3000 (Lipofectamine™ 3000) (a total of 2.5 µg of plasmids, i.e., 1.25 µg of each plasmid, were added to each well) were left to stand and incubated for 10 min, and then 250 µL of the above transfection reagents were added dropwise to each well containing cells and co-incubated with the cells for 24 h.
The cells were washed with PBS, and the medium was replaced with a phenol red-free RPMI-1640 medium containing 5% carbon adsorption serum (or 10% fetal bovine serum and 1% penicillin and streptomycin). The cells were re-plated onto a 96-well plate (Corning, 3603) according to the number of cells plated (2 × 10^4 cells/well).
After cell plating, the test compound (or DMSO or positive control) was added. After at least 30 min of incubation, DHT (dihydrotestosterone) was added to the culture system at a final concentration of 1 nM. The culture system was then incubated in a carbon dioxide incubator.
Test compound: 10 mM stock solution, with a final concentration of 3.3 µM or 6.7 µM. Negative control: 0.1% DMSO. Positive control: 30 µM enzalutamide.
After the test compound (or DMSO or positive control) and DHT were co-incubated for 24 h, the luciferase signal was detected using the Vazyme Bright-Lite substrate. The medium was added at 70 µL/well, and the plate was shaken for 2 min, followed by reading of the luciferase signal.
Assay robustness was confirmed using the DMSO and low concentration control data: Ave_H = Ave(DMSO) [formula] Ave_L = Ave (30μMenzalutamide) [formula] Inhibition rate (%) = (Ave_H−Sample)/(Ave_H−Ave_L) × 100% [formula] Ave_H: the measurement of the negative control (0.1% DMSO); Ave_L: the measurement of the positive control (30 µM enzalutamide); Sample: the measurement of the test compound; The corresponding activity test results for the test compounds were specified in Table 1. Table 1. Corresponding activity test results for compounds disclosed herein
A general note: A reporter such as luciferase makes a cellular process visible.

The nature of the next data set: Whole blood stability. The settings on record: human.
The test system of data set [2] is C57BL/6 mice. The experiment in a line: In vivo pharmacodynamic study 2: hair growth scoring in shaved telogen-phase mice, topical treatment. The settings on record: for Score (mean±SD): hair growth score 0-5, 0.5 wt% topical twice daily. The text has this:
Vehicle: propylene glycol/ethanol (30:70, v/v)
A 1 cm × 1 cm area in the center of the back skin was selected as the treatment area.
The control group received the control solvent. 12 mice were in each group.
The mice were weighed on days 9, 12, 15, 19, and 22, and the hair growth state was scored and photographed.

Data set [3] deals with C57BL/6 mice. Particulars: mouse, in vivo.
Description: (§1) Animal information: C57BL/6 mice (male, aged 4-6 weeks, about 18-20 g), purchased from Shanghai Lingchang Biotechnology Co., Ltd. The mice were bred in an SPF-level environment within independently ventilated cages.
(§2) Skin preparation: After 1-2 weeks of acclimation, the hairs in a 2 cm × 3 cm area of the back of the mice were shaved to confirm that the hairs of the mice were in the telogen phase (the skin was pink) and the skin was not damaged.
(§3) Treatment: On day 3 after shaving, the mice were grouped for treatment. […] The control group received the control solvent. 12 mice were in each group.
(§4) The mice were weighed on days 10, 13, 18, 21, 25, and 30, and the hair growth state was scored and photographed.
(§5) The scoring criteria are as follows: • 0: no growth, with pink skin in the shaved area; • 1: the skin in the shaved area was gray (an increase of less than 20%); • 2: the skin in the shaved area was black (more than 20% but less than 40%); • 3: the skin in the shaved area was black with a little hair growth (more than 40% but less than 60%); • 4: the skin in the shaved area was black with partial hair growth (more than 60% but less than 80%); • 5: basically complete hair growth (80%-100% growth) in the shaved area.
For data set [4] the following is noted: 5 µM.
Protocol: (§6) 1 mM stock solutions of the test compounds were prepared in DMSO, and a 1 mM stock solution of the reference compound propantheline was prepared in acetonitrile.
(§7) 4 µL of test compound (or reference compound) stock solution was added to 796 µL of pre-incubated human blood (whole blood) at a final concentration of 5 µM. The final concentration of the solvent was 0.5%. At different time points (including 5 min, 15 min, 30 min, 60 min, and 120 min), a 50 µL aliquot of the whole blood containing the sample was added to a new tube and incubated in a 37 °C water bath with shaking at 60 rpm. The treatment was performed in duplicate. At designated time points, 300 µL of room-temperature quenching solution (a solution of acetonitrile containing internal standards (100 nM alprazolam, 500 nM labetalol, and 2 µM ketoprofen)) was added to the whole blood sample containing the sample to terminate the reaction. 50 µL of whole blood containing the sample was added to a new tube containing 300 µL of room-temperature quenching solution to prepare a sample at 0 min. All samples were vortexed for 5 min. The samples in the plate were centrifuged at 3220 g for 30 min at 4 °C to precipitate the proteins. 100 µL of the supernatant was transferred to a new 96-well plate containing 100 µL of water for LC-MS/MS analysis.
(§8) The peak area ratio was determined by using an extracted ion chromatogram. The proportion of remaining compound at each time point was calculated according to the following formula: Remaning proporion t min (%) = peak area ratio t min / peak area ratio 0 min × 100% [formula] • Peak area ratio t min: peak area ratio of reference compound to test compound at t min; • Peak area ratio 0 min: peak area ratio of reference compound to test compound at time zero.
(§9) The slope value was determined by linear regression on the curve of the natural logarithm of the remaining proportion of the test compound versus the incubation time.
(§10) Determination of in vitro half-life (in vitro t1/2) from the slope value: in vitro t1/2 = 0.693/k [formula] in the formula, k is the rate constant (k = -slope value)
For data set [5], the system named is C57BL/6 mice. The experiment in a line: In vivo pharmacodynamic study 1: hair growth scoring in shaved telogen-phase mice, topical treatment. Particulars: for Score (mean±SD): hair growth score 0-5, topical twice daily, compound 001 2 wt%, compound 008 0.5 wt%.
Description: as §1, §2, §3, §4, §5
[6] abbreviates: at the investigated doses (0.5 wt%, BID topical).

The structures appear in SMILES notation. Where two headings read alike, the source gives them in different places. Marks after values point to notes of the source that are not given here.

Protocol for Whole blood stability: as §6, §7, §8, §9, §10
Protocol for in vitro: as §6, §7, §8, §9, §10

Take `CCOC(=O)C(C)(O)C(=O)Nc1cnc(C#N)c(SC)c1` (single isomer, unassigned) [Compound 016B]: in data set [1] (microsomes), the microsomal CLint at 1 µM is 88.3 µL/min/mg and the half-life at 1 µM is 0.262 h. The half-life at 5 µM in “in vitro” is 1.69 h. Also, the “AR antagonism (inhibition rate, %)” value in the data set with AR is on record as 90.50^a %.
For the compound `CC(C)OC(=O)C(C)(O)C(=O)Nc1cnc(C#N)c(C(F)(F)F)c1` (stereo not drawn) [Compound 013, Isopropyl 3-[[6-cyano-5-(trifluoromethyl)-pyridin-3-yl]amino]-2-hydroxy-2-methyl-3-oxopropanoate], the half-life at 5 µM in the data set “Whole blood stability” is 5.82 h. The “AR antagonism (inhibition rate, %)” value with AR is listed as 90.0^a %.
For the compound `CCOC(=O)[C@@](C)(O)C(=O)Nc1cnc(C#N)c(SC)c1` [Compound 016A, ethyl (2S)-3-[(6-cyano-5-methylthio-pyridin-3-yl)amino]-2-hydroxy-2-methyl-3-oxopropanoate], the microsomal CLint at 1 µM in data set [1] (human liver microsomes) was found to be 91.8 µL/min/mg. Besides, in data set [1] (human liver microsomes), the half-life at 1 µM amounted to 0.252 h. The compound also registered a half-life at 5 µM in the data set “Whole blood stability” of 2.2 h. Besides, the “effect on hair growth” value with C57BL/6 mice [2] (0.5 wt%, BID topically at 20 µL/cm^2) is given as “significant promoting effect”. For the same compound, the “Score (mean±SD)” value in the data set with C57BL/6 mice [2] (Day 0) turned out to be 0; in the data set with C57BL/6 mice [2] (Day 9), 0.1±0.3; with C57BL/6 mice [2] (Day 12) it was 0.1±0.3; with C57BL/6 mice [2] (Day 15) it was 0.5±0.8; with C57BL/6 mice [2] (Day 19) it was 1.7±1.5; in the data set with C57BL/6 mice [2] (Day 22), 2.9±1.6. For the same compound, the “impact on the body weight of the mice” value in the data set on C57BL/6 mice [2] (setting [6]) is “no significant impact”. For the same compound, the “signs of erythema, dehiscence, desquamation, and the like on the skin” value in the data set on C57BL/6 mice [2] (setting [6]) is listed as “no signs”. The “day of the treatment from which hair growth was significantly promoted” value with C57BL/6 mice [2] (vs. vehicle control, P < 0.0001) was ≥ 19 days. Moreover, the “AR antagonism (inhibition rate, %)” value with AR is 99.98^a %.
`CCOC(=O)C(C)(O)C(=O)Nc1cnc(C#N)c(C(F)(F)F)c1` (stereo not drawn) [Compound 001, Ethyl 3-[[6-cyano-5-(trifluoromethyl)-pyridin-3-yl]amino]-2-hydroxy-2-methyl-3-oxopropanoate]: in the data set on C57BL/6 mice [3], the “impact on the body weight of the mice” value is “no significant impact”. In addition, the “signs of erythema, dehiscence, desquamation, and the like on the skin” value in the data set on C57BL/6 mice [3] was “no signs”. Moreover, the “Human whole blood half-life T1/2” value in data set [4] is 2.9982 h. In addition, the “Score (mean±SD)” value is given as 0 in the data set with C57BL/6 mice [5] (Day 0); 0.6±0.5 in the data set on C57BL/6 mice [5] (Day 10); 0.9±0.9 in the data set on C57BL/6 mice [5] (Day 13); 1.3±1.4 in the data set with C57BL/6 mice [5] (Day 18); 1.9±1.8 in the data set with C57BL/6 mice [5] (Day 21); 2.4±2.2 in the data set with C57BL/6 mice [5] (Day 25). The “Score (mean±SD)” value in the data set on C57BL/6 mice [5] (Day 30) worked out at 3.0±1.8. Further, in the data set on C57BL/6 mice [5] (compound 001 at 2%, compound 008 at 0.5%, BID topically at 20 µL/cm^2), the “effect on mouse hair growth” value was “significant promoting effect”. Besides, the “day of the treatment from which hair growth was significantly promoted” value in the data set on C57BL/6 mice [5] (vs. vehicle control, 001 P < 0.01, 008 P < 0.05) was ≥ 10 days. Moreover, the “AR antagonism (inhibition rate, %)” value with AR is 86.6^a %.

The values above are taken from patent publication EP4772498A1, “COMPOUND ACTING AS ANDROGEN RECEPTOR ANTAGONIST” (China Pharmaceutical University, priority 2023, dated 2025).
